The conditions of this data set: Crystal; visual observation.

Molecules are shown by their SMILES. ± gives the expanded uncertainty stated by the source.

For `O=C1C=CC(=O)N1c1cc(F)c(Br)c(F)c1` [1-(4-bromo-3,5-difluorophenyl)-1H-pyrrole-2,5-dione], the Normal melting temperature came to 197.50 ± 0.53 °C.

Source of the values: the NIST ThermoML archive (doi:10.1021/je1010054).
